Assay [1] is described as follows: Competitive inhibition of metallo-beta-lactamase IMP-1 expressed in Escherichia coli BL21(DE3) using benzylpenicillin as substrate by 96-well plate assay.
A short description of assay [2]: Un-competitive inhibition of metallo-beta-lactamase IMP-1 expressed in Escherichia coli BL21(DE3) using benzylpenicillin as substrate by 96-well plate assay.
Assay [3] in a line: Competitive inhibition of metallo-beta-lactamase IMP-1 expressed in Escherichia coli BL21(DE3) using penicillin G as substrate by cuvette assay.
Assay [4] can be described thus: Competitive inhibition of metallo-beta-lactamase IMP-1 expressed in Escherichia coli BL21(DE3) using penicillin G as substrate by 96-well plate assay.

The text below walks through data of ChEMBL document CHEMBL1777712, “The identification of new metallo-β-lactamase inhibitor leads from fragment-based screening” (Bioorg Med Chem Lett, 2011).

With `Nc1ccc(C(F)(F)F)cc1N`, the inhibition constant (Ki) in assay [1] was determined as 990 µM; in assay [2] it was 430 µM.

In the case of `COC(=O)c1cccc(CN)c1`, the Ki was determined as 890 µM in assay [1] and 410 µM in assay [2].

For `OCc1ccc(-n2ccnc2)cc1`, the Ki is > 2000 µM in assay [1] and 500 µM in assay [2].

For the compound `NC(=O)Cc1ccc(F)cc1Cl`, the inhibition constant Ki in assay [1] worked out at 760 µM; in assay [2], 680 µM.

`Nc1cccc(-c2cccnc2)c1`: the Ki stood at 510 µM in assay [1] and 900 µM in assay [2].

Consider `Cn1c(S)nnc1C(F)(F)F`, for which the results for the inhibition constant (Ki) in assay [1] and in assay [2] were 970 µM and > 2000 µM, respectively.

As to `OCc1ccc(Cn2ccnc2)cc1`, the Ki is > 2000 µM in assay [1] and 790 µM in assay [2].

On to `Nc1cccc(Cn2ccnc2)c1`, for which the inhibitory constant (Ki) turned out to be 1640 µM in assay [1] and 780 µM in assay [2].

In the case of `Nc1ccc(Cn2ccnc2)cc1`, the Ki in assay [1] turned out to be 1510 µM; in assay [2] it was 1180 µM.

As for `C[C@H](CS)C(=O)N1CCC[C@H]1C(=O)O` [CAPTOPRIL], the Ki in assay [3] was 12.5 µM; in assay [2], > 2000 µM; in assay [4], 7.2 µM.

Usually Ki stands for a measure of affinity in units of concentration, obtained from inhibition or displacement. A lower Ki goes with tighter binding.
